Assay results published in patent US20220348590A1, “CYCLOOXYGENASE-2 INHIBITORS AND USES THEREOF” (The Board Institute, Inc., priority 2019, published 2022).
Like-named read-outs stand apart in the source and are kept apart here.

What was measured:
[1] = target: T1, ovine COX-1 (oCOX-1) (Ovis aries, UniProt P05979); test: LCMS-based COX-1 enzymatic inhibition assay (PGE2 quantification); assay type: biochemical
T1 construct: purchased Cayman Chemicals (Ann Arbor, Mich.)
T1 sequence (P05979 25-600): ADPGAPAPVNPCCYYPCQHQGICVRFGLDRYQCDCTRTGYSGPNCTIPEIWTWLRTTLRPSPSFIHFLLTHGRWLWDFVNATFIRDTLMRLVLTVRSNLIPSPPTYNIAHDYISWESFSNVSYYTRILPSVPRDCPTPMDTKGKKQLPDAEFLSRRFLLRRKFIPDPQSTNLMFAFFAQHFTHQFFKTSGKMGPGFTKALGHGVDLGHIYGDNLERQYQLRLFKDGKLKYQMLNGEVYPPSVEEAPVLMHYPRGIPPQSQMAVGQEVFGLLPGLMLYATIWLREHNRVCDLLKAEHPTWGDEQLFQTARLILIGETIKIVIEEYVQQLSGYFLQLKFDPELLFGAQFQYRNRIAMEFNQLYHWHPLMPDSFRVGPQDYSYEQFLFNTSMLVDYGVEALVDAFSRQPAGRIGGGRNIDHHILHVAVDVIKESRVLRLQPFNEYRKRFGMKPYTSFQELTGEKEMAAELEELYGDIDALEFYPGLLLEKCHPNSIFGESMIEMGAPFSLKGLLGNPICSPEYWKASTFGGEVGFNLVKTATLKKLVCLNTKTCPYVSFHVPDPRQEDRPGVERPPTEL
How it was run: (§1)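 PGE2 formed from arachidonic acid (final 5 μM, 2 min) was measured by LC-MS-MS against DMSO controls. Enzyme (oCOX-1 0.1 μg or hCOX2 0.2 μg) with hematin/epinephrine cofactors at pH 8.0 was given 10 min at 37 °C with compound first. Twelve-point curves run three times gave IC50.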

[2] = target: T2, human recombinant COX2 (hCOX2) (UniProt P35354); test: LCMS-based COX2 enzymatic inhibition assay (PGE2 quantification); assay type: biochemical; design: COX2 2 minutes pge2/pge2d4 area ratio Avg; other: 2 minutes; readout pge2/pge2d4 area ratio; average; COX2 2 minutes pge2/pge2d4 area ratio Avg; LLE; average LLE; COX2 2 minutes pge2 area (counts) Avg; readout pge2 area (counts); other: 2 min; "ovine COX2 (oCOX2), human recombinant COX2 (hCOX2)"; conditions: for IC50: average
T2 sequence (P35354 1-604): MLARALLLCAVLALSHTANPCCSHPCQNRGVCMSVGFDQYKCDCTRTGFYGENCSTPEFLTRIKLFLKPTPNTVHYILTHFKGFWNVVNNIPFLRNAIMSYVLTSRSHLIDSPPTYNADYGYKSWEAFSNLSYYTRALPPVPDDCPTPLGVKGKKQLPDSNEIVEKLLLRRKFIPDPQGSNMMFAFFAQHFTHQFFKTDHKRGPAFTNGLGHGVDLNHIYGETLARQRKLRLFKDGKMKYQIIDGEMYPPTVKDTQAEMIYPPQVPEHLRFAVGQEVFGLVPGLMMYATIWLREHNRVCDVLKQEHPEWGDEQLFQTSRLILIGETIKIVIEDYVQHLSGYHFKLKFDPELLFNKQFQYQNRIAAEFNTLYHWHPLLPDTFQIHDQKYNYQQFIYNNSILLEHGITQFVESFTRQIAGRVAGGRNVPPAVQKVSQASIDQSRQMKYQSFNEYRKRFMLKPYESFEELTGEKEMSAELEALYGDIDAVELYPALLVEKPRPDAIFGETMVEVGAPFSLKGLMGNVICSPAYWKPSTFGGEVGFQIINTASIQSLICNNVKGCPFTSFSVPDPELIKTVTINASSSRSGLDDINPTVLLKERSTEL
How it was run: as §1

[3] = 10 minutes, readout pge2/pge2d4 area ratio, average LLE
[4] = 10 minutes, readout pge2/pge2d4 area ratio, average, read-out: COX1 10 minutes pge2/pge2d4 area ratio Avg. IC50
[5] = 10 minutes, readout pge2 area (counts), average LLE
[6] = 10 minutes, readout pge2 area (counts), average, read-out: COX1 10 minutes pge2 area (counts) Avg. IC50
[7] = 2 minutes, readout pge2/pge2d4 area ratio, average LLE
[8] = 2 minutes, readout pge2/pge2d4 area ratio, read-out: COX2 2 minutes pge2/pge2d4 area ratio Avg. IC50
[9] = 2 minutes, readout pge2 area (counts), average LLE
[10] = 2 minutes, readout pge2 area (counts), read-out: COX2 2 minutes pge2 area (counts) Avg. IC50
[11] = 10 minutes, pge2 area (counts), head of this section not shown, inferred
[12] = 10 minutes, pge2 area (counts), head of this section not shown, inferred, read-out: COX1 10 minutes pge2 area (counts) Avg. IC50
[13] = 10 minutes, pge2/pge2d4 area ratio, head of this section not shown, inferred

| SMILES | COX1 10 minutes pge2/pge2d4 area ratio Avg. LLE [1, 3] | IC50 [1, 4] | COX1 10 minutes pge2 area (counts) Avg. LLE [1, 5] | IC50 [1, 6] | COX2 2 minutes pge2/pge2d4 area ratio Avg. LLE [2, 7] | IC50 [2, 8] | COX2 2 minutes pge2 area (counts) Avg. LLE [2, 9] | IC50 [2, 10] | COX1 10 minutes pge2 area (counts) Avg. LLE [1, 11] | IC50 [1, 12] | COX1 10 minutes pge2/pge2d4 area ratio Avg. LLE [1, 13] | COX2 10 minutes pge2 area (counts) Avg. LLE [2, 5] | IC50 ([2]; 10 minutes, readout pge2 area (counts), read-out: COX2 10 minutes pge2 area (counts) Avg. IC50) | IC50 [1] |
| --- | --- | --- | --- | --- | --- | --- | --- | --- | --- | --- | --- | --- | --- | --- |
| C[C@H](Oc1cccc(-c2ccc(S(C)(=O)=O)cc2)n1)c1cccs1 (single isomer, unassigned) [Compound 46] | 0.04315 | 50900 nM | 0.2102 | 34700 nM | 3.462 | 20.2 nM | 3.431 | 23.5 nM |  |  |  |  |  |  |
| CS(=O)(=O)c1ccc(-c2cncc(OCc3ccoc3)n2)cc1 [Compound 58] |  | 34400 nM |  |  | 5.691 | 31 nM | 5.691 | 30.9 nM | 2.324 |  | 2.5036 |  |  |  |
| CS(=O)(=O)c1ccc(-c2ncc3ccn(Cc4cccs4)c3n2)cc1 [Compound 71] |  | 49300 nM |  |  | 3.165 | 41.2 nM | 3.167 | 41.6 nM |  |  | 0.04679 |  |  |  |
| Cc1coc(CNc2cccc(-c3ccc(S(C)(=O)=O)cc3)n2)c1 [Compound 85] |  |  |  |  | 4.23 | 58.1 nM | 3.951 | 115 nM | 1.134 |  | 1.134 |  |  | 52000 nM |
| COc1ccc(NCc2ccoc2)nc1-c1ccc(S(C)(=O)=O)cc1 [Compound 66] |  |  |  |  | 4.554 | 37.3 nM | 4.505 | 42 nM | 1.364 |  | 1.364 |  |  | 52000 nM |
| CS(=O)(=O)c1ccc(-c2coc3ccc(NCc4cccs4)nc23)cc1 [Compound 39] |  |  |  |  |  | 18.6 nM |  | 18.4 nM |  |  |  |  |  | 52000 nM |
| CS(=O)(=O)c1ccc(-c2cccc(NCc3cccs3)c2)cc1 [Compound 42] | 0.01187 | 36200 nM | −0.01745 | 38700 nM | 3.551 | 19.5 nM | 3.78 | 6.71 nM |  |  |  |  |  |  |
| Cc1csc(COc2cncc(-c3ccc(S(C)(=O)=O)cc3)n2)c1 [Compound 10] | 2.513 | 5850 nM | 2.529 | 5640 nM | 5.4246 | 8.12 nM | 5.349 | 9.54 nM |  |  |  |  |  |  |

Now from value to compound, other results behind:

| COX1 10 minutes pge2/pge2d4 area ratio Avg. LLE [1, 3] | IC50 [1, 4] | COX1 10 minutes pge2 area (counts) Avg. LLE [1, 5] | IC50 [1, 6] | COX2 2 minutes pge2/pge2d4 area ratio Avg. LLE [2, 7] | IC50 [2, 8] | COX2 2 minutes pge2 area (counts) Avg. LLE [2, 9] | IC50 [2, 10] | COX1 10 minutes pge2 area (counts) Avg. LLE [1, 11] | IC50 [1, 12] | COX1 10 minutes pge2/pge2d4 area ratio Avg. LLE [1, 13] | COX2 10 minutes pge2 area (counts) Avg. LLE [2, 5] | IC50 ([2]; 10 minutes, readout pge2 area (counts), read-out: COX2 10 minutes pge2 area (counts) Avg. IC50) | SMILES | IC50 [1] |
| --- | --- | --- | --- | --- | --- | --- | --- | --- | --- | --- | --- | --- | --- | --- |
|  |  |  |  | 5.405 | 152 nM | 5.443 | 141 nM | 2.83 | 50200 nM |  |  |  | C[S+]([O-])c1ccc(-c2cncc(NCc3cccs3)n2)cc1 (stereo not shown) [Compound 129] |  |
|  | 15000 nM |  |  | 4.8 | 42.9 nM | 4.74 | 45.2 nM | 2.127 | 17100 nM | 2.183 |  |  | CS(=O)(=O)c1ccc(-c2cccc(NCc3ccc[nH]3)n2)cc1 [Compound 73] |  |
|  |  |  |  | 5.017 | 69 nM | 5.139 | 55.8 nM | 2.104 |  |  | 5.9924 | 6.85 nM | CS(=O)(=O)c1ccc(-c2cncc(NCc3ccccc3)n2)cc1 [Compound 93] |  |
|  | 16000 nM |  |  | 4.709 | 63.4 nM | 4.67 | 69.3 nM | 2.306 | 16000 nM | 2.306 |  |  | COc1ccc(NCc2cccs2)nc1-c1ccc(S(C)(=O)=O)nc1 [Compound 88] |  |
|  | 42600 nM |  |  | 4.854 | 61.9 nM | 4.881 | 56.5 nM | 1.899 | 50200 nM | 1.97 |  |  | CS(=O)(=O)c1ccc(-c2cccc(NCc3ccns3)n2)cc1 [Compound 87] |  |
|  | 37800 nM |  |  | 3.33 | 52 nM | 3.382 | 45.5 nM |  |  | 0.4422 |  |  | CS(=O)(=O)c1ccc(-n2ccc3cnc(NCc4cccs4)nc32)cc1 [Compound 80] |  |
|  | 38300 nM |  |  | 4.034 | 68.6 nM | 4.0886 | 65.3 nM | 1.134 |  | 1.267 |  |  | Cc1ccoc1CNc1cccc(-c2ccc(S(C)(=O)=O)cc2)n1 [Compound 91] |  |
|  | 17200 nM |  |  | 4.353 | 57.3 nM | 4.328 | 63.3 nM | 1.853 | 17600 nM | 1.865 |  |  | CS(=O)(=O)c1ccc(-c2cnc3ccn(Cc4ccco4)c3n2)cc1 [Compound 82] |  |
